The values below come from PMC7321072, “Bioactive Potential of Extracts of Labrenzia aggregata Strain USBA 371, a Halophilic Bacterium Isolated from a Terrestrial Source” (Molecules, 2020).

Molecules are shown by their SMILES. Like-named read-outs stand apart in the source and are kept apart here.

What all share (format): cell-based
Series [1] deals with 4T1 H17 (murine breast cancer, high ALDH expression). Briefly: Cytotoxic activity, neutral red assay, 4T1 H17. To be noted: mean ± SEM. Here is the method:
(§1) The isolated compounds were resuspended in dimethyl sulfoxide (DMSO) to a final concentration of 25 mg/mL (stock solution), subsequent dilutions between 250 and 31 μg/mL were used for cytotoxicity assays. The cytotoxic activity was determined by neutral red assay, initially against the adherent cell lines 4T1 (mouse mammary tumor) and MCF-7 (human mammary adenocarcinoma) followed by H17 y TSA (murine breast cancer), MES SA PGP (+) y MES SA PGP (–) (human uterus sarcome), B16 (murine melanoma), MCA 38 (murine colon), 3T3 (murine fibroblats) y K562-ATCC, U937 y HL-60/MX2 (myeloid acute leukemia cell line) as described by Díaz-Cárdenas et al., 2017 [15]. When cultures reached a confluence of 80%, cells were passaged and counted in a Neubauer chamber. Cell viability was estimated in triplicate using the trypan blue assay. The percentage of viability was calculated as absorbance of the vehicle/absorbance of the treatment per 100. […] IC50 values were calculated with three or four parameter nonlinear regression curves using GraphPad Prism software (GraphPad Software, Inc., San Diego, CA, USA). […] The selectivity index was calculated using the formula: IC50 Fibroblasts/IC50 tumor cell. […]
(§2) The solvent used in the reconstitution of the extract (DMSO) was evaluated as a negative control for each test in the same volume as the extracts. […]

Another series concerns 3T3 (murine fibroblast). Briefly: Cytotoxic activity, neutral red assay, 3T3 normal fibroblasts. As to conditions: 3T3, murine fibroblast (normal cells); mean ± SEM; read-out: Cytotoxic Activity of Fractions IC50. Here is the method:
as §1, §2

Series [2] deals with 4T1 (mouse mammary tumor). Briefly: Cytotoxic activity, neutral red assay, 4T1. As to conditions: mean ± SEM. Here is the method: (§3) The isolated compounds were resuspended in dimethyl sulfoxide (DMSO) to a final concentration of 25 mg/mL (stock solution), subsequent dilutions between 250 and 31 μg/mL were used for cytotoxicity assays. The cytotoxic activity was determined by neutral red assay, initially against the adherent cell lines 4T1 (mouse mammary tumor) and MCF-7 (human mammary adenocarcinoma) followed by H17 y TSA (murine breast cancer), MES SA PGP (+) y MES SA PGP (–) (human uterus sarcome), B16 (murine melanoma), MCA 38 (murine colon), 3T3 (murine fibroblats) y K562-ATCC, U937 y HL-60/MX2 (myeloid acute leukemia cell line) as described by Díaz-Cárdenas et al., 2017 [15]. When cultures reached a confluence of 80%, cells were passaged and counted in a Neubauer chamber. Cell viability was estimated in triplicate using the trypan blue assay. The percentage of viability was calculated as absorbance of the vehicle/absorbance of the treatment per 100. Inhibitory concentration 50 (IC50) values were defined as the concentration of the extracts that generated 50% inhibition of tumor cell growth. IC50 values were calculated with three or four parameter nonlinear regression curves using GraphPad Prism software (GraphPad Software, Inc., San Diego, CA, USA). IC50 values are presented as the mean ± standard error of mean (SEM). The selectivity index was calculated using the formula: IC50 Fibroblasts/IC50 tumor cell. A potential against tumor cell lines was considered when the selectivity was greater than 1.
(§4) The solvent used in the reconstitution of the extract (DMSO) was evaluated as a negative control for each test in the same volume as the extracts. Doxorubicin at a maximum concentration of 5 μM was used as a positive control.

The test system of series [3] is K562 (myeloid acute leukemia). Briefly: Cytotoxic activity, neutral red assay, K562. Here is the method: as §1, §2
The next series concerns MCA 38 (murine colon). Briefly: Cytotoxic activity, neutral red assay, MCA 38. To be noted: mean ± SEM. Here is the method: as §1, §2
Series [4] deals with U937 (myeloid acute leukemia). Briefly: Cytotoxic activity, neutral red assay, U937. Here is the method: as §1, §2
The next series relates to B16 (murine melanoma). Briefly: Cytotoxic activity, neutral red assay, B16. To be noted: mean ± SEM, read-out: Cytotoxic Activity of Fractions IC50. Here is the method: as §1, §2
Series [5] deals with MCF-7 (human mammary adenocarcinoma). Briefly: Cytotoxic activity, neutral red assay, MCF-7. As to conditions: mean ± SEM. As for the experimental part:
as §3, §4

The test system of the next series is 3LL (lung cancer). Briefly: Cytotoxic activity, neutral red assay, 3LL. As to conditions: mean ± SEM.
In series [6] the test system is MES–SA/DX5P-Pgp (+) (human uterus sarcome). Briefly: Cytotoxic activity, neutral red assay, MES-SA/DX5 Pgp (+). As for the experimental part: as §1, §2
Series [7] deals with TSA (murine breast cancer). Briefly: Cytotoxic activity, neutral red assay, TSA. As to conditions: mean ± SEM, read-out: Cytotoxic Activity of Fractions IC50. Here is the method:
as §1, §2

The mark [8] stands for this setting: listed as compound 1, read-out: Cytotoxic Activity of Fractions IC50.
Where [9] appears, read: read-out: Cytotoxic Activity of Fractions IC50.

Usually IC50 stands for the concentration needed to halve the response being measured. `O=C1N[C@@H](Cc2ccc(O)cc2)C(=O)N2CCC[C@@H]12` [Compound 1, cyclo (L-Pro-L-Tyr)]: the IC50 in series [1] (setting [8]) is less than 40 µM; in [1] (setting [9]) it was 40.4 ± 1.94 µM; with 3T3 (murine fibroblast), 314 ± 3.41 µM; in series [2], 57.1 ± 2.11 µM; in series [2] (listed as compound 1) it was less than 88 µM; with MCA 38 (murine colon) (setting [8]) it was less than 40 µM. The half-inhibitory concentration (IC50) was 29.9 ± 1.55 µM in the series on MCA 38 (murine colon) (setting [9]); 80.9 ± 3.67 µM with B16 (murine melanoma); 87.7 ± 2.32 µM in series [5]; less than 88 µM in series [5] (listed as compound 1); less than 51.7 µM in the series with 3LL (lung cancer) (setting [8]); 51.7 ± 0.55 µM in the series on 3LL (lung cancer) (setting [9]). For the same compound, the IC50 in [6] (MES-SA/DX5 Pgp (+), human uterus sarcoma, mean ± SEM, read-out: Cytotoxic Activity of Fractions IC50) is 225.3 ± 1.23 µM; in [7], 197 ± 4.18 µM. Besides, the “cytotoxic activity (in words)” value in series [3] and in [4] was “no activity was detected” in each case. The “Selectivity Index (SI)” value in series [6] (IC50 fibroblasts (3T3)/IC50 MES-SA/DX5 Pgp (+)) amounted to 1.39.

On to `O=C1N[C@@H](Cc2ccc(O)cc2)C(=O)N[C@H]1Cc1ccccc1` [Compound 2, cyclo (L-Tyr-L-Phe)], for which the IC50 in series [2] is 875.9 ± 5.14 µM; in series [2] (listed as compound 2), more than 250 µM; in series [5], 890.5 ± 3.45 µM; in [5] (listed as compound 2) it was more than 250 µM.
